Experimental data from patent US7812022B2 (GlaxoSmithKline LLC, priority 2004, dated 2010).

How the values were obtained:
ErbB2 or EGFR = target: T1, ErbB2 or EGFR; test: ErbB family substrate phosphorylation enzyme assay (HTRF), Method A or Method B; type: biochemical
T1 construct: enzymes purified from a baculovirus expression system; Reagent production was conducted essentially as described in Brignola, P. S., et al, (2002) J. Biol. Chem. 277(2): 1576-1585
Method: Compounds of the present invention were tested for EGFR, ErbB-2, and ErbB-4 protein tyrosine kinase inhibitory activity in substrate phosphorylation assays using enzymes purified from a baculovirus expression system. Reagent production was conducted essentially as described in Brignola, P. S., et al, (2002) J. Biol. Chem. 277(2): 1576-1585.
The method measures the ability of the isolated enzyme to catalyse the transfer of the gamma-phosphate from ATP onto the tyrosine residue of a biotinylated synthetic peptide referenced “Peptide C” in Brignola, P. S., et al, (2002) J. Biol. Chem. 277(2):1576-1585. The extent of tyrosine phosphorylation was measured using an anti-phosphotyrosine antibody, and quantified by homogenous time-resolved fluorescence (HTRF).
Reactions were performed in black 384-well polystyrene flat-bottom plates in a final volume of 20 ul. Assays were performed by adding 10 μl of each of the following solutions, substrate Mix and enzyme mix: The Substrate mix contained 100 mM 3-[N-morpholino]propanesulfonic acid (MOPS) (pH 7.5), 2 mM MnCl2, 20 μM ATP, 0.01% Tween-20, 0.1 mg/mL (BSA), 0.8 uM peptide substrate, and 1 mM dithiothreitol. The enzyme mix contained 100 mM MOPS (pH7.5); 0.01% Tween-20; 0.1 mg/mL BSA, and either 0.8 nM EGFR, 10 nM ErbB2, or 1 nM ErbB4
During the course of these studies, two separate methods have been used to measure the potency of compounds. In Method A, the substrate mix was added to the compound plates first, then the reaction was started by adding the enzyme mix. In Method B, the enzyme mix was added to the compound plates and the plates were incubated at 20° C. for 1 hour. The reactions were then started by adding the substrate mix.
After initiating the reaction with either method describe above, the reactions were allowed to proceed for 90 minutes at 20° C. The reactions were then terminated by the addition of 20 μl 100 mM EDTA to each well. 40 μl/well of HTRF detection mix were added to the assay plates. The final concentrations of the detection reagents were: 100 mM HEPES (pH7.5), 0.1 mg/mL BSA, 15 nM streptavidin-labeled allophycocyanin (PerkinElmer), and 1 nM europium-labeled anti-phosphotyrosine antibody (PerkinElmer). Assay plates were left unsealed and were counted in a Wallac Multilabel Counter 1420 (PerkinElmer).
Compounds under analysis were dissolved in Me2SO to 1.0 mM and serially diluted 1 to 3 with Me2SO through twelve dilutions. 1 μl of each concentration was transferred to the corresponding well of an assay plate. This creates a final compound concentration range from 0.00027 to 47.6 μM.
The data for dose responses were plotted as % Inhibition calculated with the data reduction formula 100*(1−(U1−C2)/(C1−C2)) versus concentration of compound where U is the unknown value, C1 is the average control value obtained for 4.76% DMSO, and C2 is the average control value obtained for 0.035 M EDTA. Data were fitted with a curve described by: y=((Vmax*x)/(K+x))+Y^2 where Vmax is the upper asymptote, Y2 is the Y intercept, and K is the IC50. The results for each compound were recorded as pIC50s, calculated as follows: pIC50=−Log 10(K)

[1] = system: BT474 and HN5 tumor cell lines; test: Methylene blue growth inhibition assay (cellular Method A); type: cell-based, Human; conditions: Homo sapiens, BT-474, 72 h, 3 days, read-out: Activity (Method): growth inhibition IC50 class
Method: Human breast (BT474) and head and neck (HN5) were cultured in low glucose DMEM (Life Technologies 12320-032) containing 10% fetal bovine serum (FBS). Human colon tumor cells (Colo205) were cultured in DMEM (Invitrogen, 10564) containing 10% FBS. The SV40 transformed human mammary epithelial cell line HB4a was transfected with either human H-ras cDNA (HB4a r4.2) or the human c-ErbB2 cDNA (HB4a c5.2). The HB4a clones were cultured in RPMI containing 10% FBS, insulin (5 g/mL), hydrocortisone (5 g/mL), supplemented with the selection agent hygromycin B (50 g/mL). All lines were grown in a humidified incubator at 37° C. in 95% air, 5% CO2. Cells were harvested using trypsin/EDTA, counted using a haemocytometer, and plated in 100 microliters of the appropriate media, at the following densities, in a 96-well tissue culture plate (Falcon 3075): BT474 10,000 cells/well, HN5 3,000 cells/well. The next day, compounds were diluted in DMEM containing […] gentamicin, at twice the final required concentration, from 10 mM stock solutions in DMSO. 100 microliters/well of these dilutions were added to the 100 microliters of media currently on the cell plates. Medium containing 0.6% DMSO was added to control wells. Compounds diluted in DMEM were added to all cell lines. The final concentration of DMSO in all wells was 0.3%. Cells were returned to the incubator (37° C., 10% CO2) for 3 days. Medium was then removed by aspiration. Cell biomass was estimated by staining cells with 90 microliters per well methylene blue (Sigma M9140, 0.5% in 1:1 ethanol:water), and incubation at rt for at least 30 minutes. Stain was removed, and the plates rinsed by immersion in deionized water and air-dried. To release stain from the cells 100 microliters of solubilization solution was added (1% N-lauroyl sarcosine, Sodium salt, Sigma L5125, in PBS), and plates were shaken gently for about 30 minutes. Optical density at 620 nm was measured on a microplate reader. Percent inhibition of cell growth was calculated relative to vehicle treated control wells. Concentration of compound that inhibits 50% of control cell growth (IC50) was interpolated using nonlinear regression (Levenberg-Marquardt) and the equation, y=Vmax*(1−(x/(K+x)))+Y2, where “K” was equal to the IC50. Method B: Celltiter Glo® Growth Inhibition Assays

[2] = Method B: enzyme mix pre-incubated with compound 1 hour at 20° C., started with substrate mix
[3] = Method A: substrate mix added first, reaction started with enzyme mix

SMILES	IC50 [1]	Activity (Method): pIC50 class against ErbB2 or EGFR (ErbB2 or EGFR; [2])	Activity (Method): pIC50 class against ErbB2 or EGFR (ErbB2 or EGFR; [3])
O=C(Nc1cccc(-c2nn3ccccc3c2-c2ccnc(Nc3cccc(F)c3)n2)c1)c1sccc1Br [Example 80, 3-Bromo-N-[3-(3-{2-[(3-fluorophenyl)amino]-4-pyrimidinyl}pyrazolo[1,5-a]pyridin-2-yl)phenyl]-2-thiophenecarboxamide]	0.1 to 1 µM	++ (B) (at least one pIC50 measurement greater than 6 against either ErbB2 or EGFR but no measurement greater than pIC50 of 7)	–
Cc1cc(C(=O)Nc2cccc(-c3nn4ccccc4c3-c3ccnc(Nc4cccc(F)c4)n3)c2)n(C)n1 [Example 23, N-[3-(3-{2-[(3-Fluorophenyl)amino]-4-pyrimidinyl}pyrazolo[1,5-a]pyridin-2-yl)phenyl]-1,3-dimethyl-1H-pyrazole-5-carboxamide]	> 1 µM	++ (B) (at least one pIC50 measurement greater than 6 against either ErbB2 or EGFR but no measurement greater than pIC50 of 7)	–
Cn1cccc1C(=O)Nc1cccc(-c2nn3ccccc3c2-c2ccnc(Nc3ccc4c(c3)OCCO4)n2)c1 [Example 3, 1-Methyl-1H-pyrrole-2-carboxylic acid (3-{3-[2-(2,3-dihydro-benzo[1,4]dioxin-6-ylamino)-pyrimidin-4-yl]-pyrazolo[1,5-a]pyridin-2-yl}-phenyl)-amide]	0.1 to 1 µM	–	+++ (A) (at least one pIC50 measurement of greater than 7 against either ErbB2 or EGFR)
O=C(Nc1cccc(-c2nn3c(C(F)(F)F)cccc3c2-c2ccnc(Nc3cccc(F)c3)n2)c1)c1c(F)cccc1F [Example 153, N-[3-(3-{2-[3-Fluorophenylamino]-4-pyrimidinyl}-7-trifluoropyrazolo[1,5-b]pyridin-2-yl)phenyl]-2,6-difluorobenzamide]	0.1 to 1 µM	+++ (B) (at least one pIC50 measurement of greater than 7 against either ErbB2 or EGFR)	–
N#Cc1cc(Nc2nccc(-c3c(-c4cccc(NC(=O)c5c(F)cccc5F)c4)nn4ccccc34)n2)ccc1-n1cccc1 [Example 90]	0.1 to 1 µM	–	++ (A) (at least one pIC50 measurement greater than 6 against either ErbB2 or EGFR but no measurement greater than pIC50 of 7)

Further lines, with some results ahead:

IC50 [1]	SMILES	Activity (Method): pIC50 class against ErbB2 or EGFR (ErbB2 or EGFR; [2])	Activity (Method): pIC50 class against ErbB2 or EGFR (ErbB2 or EGFR; [3])
< 0.1 µM	NS(=O)(=O)c1ccc(Nc2nccc(-c3c(-c4cccc(NC(=O)c5c(F)cccc5F)c4)nn4ccccc34)n2)cc1 [Example 32, N-{3-[3-(2-{[4-(aminosulfonyl)phenyl]amino}-4-pyrimidinyl)pyrazolo[1,5-a]pyridin-2-yl]phenyl}-2,6-difluorobenzamide]	+++ (B) (at least one pIC50 measurement of greater than 7 against either ErbB2 or EGFR)	–
< 0.1 µM	O=C(Nc1cccc(-c2nn3ccccc3c2-c2ccnc(Nc3ccc(C(=O)N4CCOCC4)cc3)n2)c1)c1c(F)cccc1F [Example 100, 2,6-Difluoro-N-{3-[3-(2-{[4-(4-morpholinylcarbonyl)-phenyl]amino}-4-pyrimidinyl)pyrazolo[1,5-a]pyridin-2-yl]phenyl}benzamide]	–	+++ (A) (at least one pIC50 measurement of greater than 7 against either ErbB2 or EGFR)
0.1 to 1 µM	Cc1cccc(C(=O)Nc2cccc(-c3nn4ccccc4c3-c3ccnc(Nc4ccccc4)n3)c2)c1 [Example 141, 3-Methyl-N-(3-{3-[2-(phenylamino)-4-pyrimidinyl]pyrazolo[1,5-a]pyridin-2-yl}phenyl)benzamide]	–	++ (A) (at least one pIC50 measurement greater than 6 against either ErbB2 or EGFR but no measurement greater than pIC50 of 7)
0.1 to 1 µM	COc1cccc2c(-c3ccnc(Nc4cccc(C(F)(F)F)c4)n3)c(-c3cccc(NC(=O)c4c(F)cccc4F)c3)nn12 [Example 158, 2,6-Difluoro-N-{3-[7-methoxy-3-(2-{[3-(trifluoro-methyl)phenyl]amino}pyrimidin-4-yl)pyrazolo[1,5-a]pyridin-2-yl]phenyl}benzamide]	–	++ (A) (at least one pIC50 measurement greater than 6 against either ErbB2 or EGFR but no measurement greater than pIC50 of 7)
0.1 to 1 µM	Nc1ccc(C(=O)Nc2cccc(-c3nn4ccccc4c3-c3ccnc(Nc4ccccc4)n3)c2)cc1 [Example 144, 4-Amino-N-(3-{3-[2-(phenylamino)-4-pyrimidinyl]pyrazolo[1,5-a]pyridin-2-yl}phenyl)benzamide]	–	+++ (A) (at least one pIC50 measurement of greater than 7 against either ErbB2 or EGFR)
0.1 to 1 µM	O=C(Nc1cccc(-c2nn3ccccc3c2-c2ccnc(Nc3cccc(F)c3)n2)c1)c1sccc1Cl [Example 79, 3-Chloro-N-[3-(3-{2-[(3-fluorophenyl)amino]-4-pyrimidinyl}pyrazolo[1,5-a]pyridin-2-yl)phenyl]-2-thiophenecarboxamide]	++ (B) (at least one pIC50 measurement greater than 6 against either ErbB2 or EGFR but no measurement greater than pIC50 of 7)	–
0.1 to 1 µM	O=C(Nc1cccc(-c2nn3ccccc3c2-c2ccnc(Nc3cccc(F)c3)n2)c1)c1ccncc1 [Example 75, N-[3-(3-{2-[(3-Fluorophenyl)amino]-4-pyrimidinyl}pyrazolo[1,5-a]pyrindin-2-yl)phenyl]-4-pyridinecarboxamide]	+++ (B) (at least one pIC50 measurement of greater than 7 against either ErbB2 or EGFR)	–
< 0.1 µM	CC(=O)Nc1cccc(Nc2nccc(-c3c(-c4cccc(NC(=O)c5c(F)cccc5F)c4)nn4ccccc34)n2)c1 [Example 36, N-{3-[3-(2-{[3-(Acetylamino)phenyl]amino}-4-pyrimidinyl)pyrazolo[1,5-a]pyridin-2-yl]phenyl}-2,6-difluorobenzamide]	–	+++ (A) (at least one pIC50 measurement of greater than 7 against either ErbB2 or EGFR)
